# Test results as given in the Biogen ADME set (Fang et al. 2023).
# Conditions: for aqueous solubility: pH 6.8
SMILES,MDR1-MDCK efflux ratio,"intrinsic clearance, human liver microsomes [mL/min/kg]","intrinsic clearance, rat liver microsomes [mL/min/kg]",aqueous solubility [µg/mL],"fraction unbound, human plasma","fraction unbound, rat plasma"
Cc1ccc(C#N)c(NCc2ccccc2-n2ccnc2)n1,1.76,45.7,621,,,
Cc1c[nH]c(=O)n1-c1ccc(C(=O)Nc2ccc3ccccc3n2)cc1,10.2,8.88,49.4,5.9,0.0436,
CC(C)CC(=O)N1CCC(Cc2cccc(-c3cncnc3)c2)(C(=O)NC(C)C)CC1,71.8,199,694,137,,
OCCOc1ccccc1OCc1ncc(Cl)cc1Cl,0.551,48.5,319,,,
CC(=O)N1CCN(c2c(Cl)cccc2NC(=O)COc2ccccc2Cl)CC1,,430,3580,19.5,0.0181,
Cc1ccc(OCC(=O)Nc2ccncc2)c(C)c1,,52.5,508,47.1,,
CCN1CCC(Oc2ncnc3c2c(C)c(C)n3C2CCCCC2)CC1,,31.7,725,,,
Oc1ccc(-c2noc(-c3cccnc3)n2)cc1,,25.1,79.3,5.03,,
COCCN1CCOc2nc3c(C)cccc3cc2C1,0.564,14.7,882,,,
CN1C(=O)c2ccc(C(=O)N3CCN(C4CCCCC4)CC3)cc2C1=O,,18.5,137,,,
CCN(Cc1ccccc1)C(=O)c1ccc(O)cc1O,0.83,≤ 4.74,726,46.7,,
Cc1cc(N2CCCC2c2cc(CCC(=O)O)cc(C)n2)ncn1 (stereo not drawn),,≤ 4.74,≤ 10.7,,1,1
CC1(C)Cc2cc(NC(=O)c3cnn4cccnc34)c(N3CCN(CC(F)F)CC3)nc2O1,7.71,18.6,121,76.9,,
Cc1ccc(Oc2ccc(N)cc2)nn1,0.725,≤ 4.74,≤ 10.7,,,
CSCC[C@@H](CO)n1ccnc1-c1oc2ccccc2c1C,3.51,167,2000,73.2,,
CNC(=O)c1cccc(Cn2nnc(-c3ccccc3Cl)n2)c1,9.33,16.5,775,22.9,,
Cc1ccc(C(=O)Nc2ncccc2C)s1,0.664,6.72,34.6,37.8,,

SMILES,MDR1-MDCK efflux ratio,"intrinsic clearance, human liver microsomes [mL/min/kg]","intrinsic clearance, rat liver microsomes [mL/min/kg]",aqueous solubility [µg/mL],"fraction unbound, human plasma","fraction unbound, rat plasma"
NCCc1cnn(Cc2ccccc2)c1,,≤ 4.74,≤ 10.7,,,
COc1ccc(C2(NCc3cccc4ncccc34)CC2)cc1,0.483,261,1340,55.5,,
COCc1ccccc1CNc1ccc2nnc(-c3ccccc3)n2n1,9.33,101,417,2.8,,
Cc1nc(C2CCNCC2)cc(N(C)C)n1,4.51,≤ 4.74,≤ 10.7,38.5,,
CCN(C(=O)N1CCC(CC(=O)N2CCN(C)CC2)CC1)C(C)C,16.2,23.9,54.7,81.3,,
Cc1ccccc1C(=O)N1CCC(O)(Cn2ccnc2C)CC1,4.93,4.92,100,,,
O=C1NC2(CCCC2)C(=O)N1Cc1ccccc1F,,,,44.5,,
CN(Cc1ccc(Cl)cc1)C(=O)c1ccc(-n2ccnc2)nc1,1.08,≤ 4.74,46.4,65.1,,
O=C(c1ccc(-c2ccncc2)cc1)N1CCC(O)(CN2CCCC2)CC1,17.7,≤ 4.74,76,,,
Cc1nccn1-c1cncc(N2CCN(CC3CCCC3)C(=O)C2)n1,6.94,19.7,540,49.7,,
c1ccc(-c2cn(C3CNC3)nn2)cc1,,≤ 4.74,28.6,,,
Cc1nc2cc(C(=O)N3CCc4nc5ccccc5c(=O)n4CC3)ccc2n1C,,≤ 4.74,24.7,67.3,,
Cc1nc2cc(-c3nccn3C)nn2c(NCCCN(C)C)c1C,67.6,≤ 4.74,601,,,
COCc1ccc(-c2nc3c([nH]2)c(C)nn3C2CCCCC2)o1,,51.8,485,38,,
COc1ncccc1CNc1c(C#N)cnc2c(C)cc(F)cc12,,156,1250,,,
Cc1cc(C)c(NC(=O)CN(C)c2ccc(C#N)nc2)c(C)c1,6.69,14.4,75.7,,,

# Next, values leading:
MDR1-MDCK efflux ratio,"intrinsic clearance, human liver microsomes [mL/min/kg]","intrinsic clearance, rat liver microsomes [mL/min/kg]",aqueous solubility [µg/mL],"fraction unbound, human plasma","fraction unbound, rat plasma",SMILES
47.7,104,237,46.4,,,CCOc1ccccc1C(=O)N1CCC(c2nc(-c3ccc(OC)cc3)c(C(N)=O)[nH]2)CC1
8.04,≤ 4.74,83.6,,,,Cc1cc(-c2nncc3c(C(C)(C)C)c(OCc4ncnn4C)nn23)no1
,151,2800,,,,CCN(Cc1cccs1)C(=O)CN1CCC(n2c(=O)[nH]c3ccccc32)CC1
131,6.28,1140,,,,CN1CCC(N(Cc2cccnc2)C(=O)NCCCc2ccccc2)CC1
,58.9,125,,,,Cc1cc(-n2nc(C)cc2N)nc(C)n1
0.656,20.2,263,69.4,,,COc1ccc(F)c(CN2CCC(Cc3noc(C)n3)CC2)c1
6.55,373,704,16.6,,,Cc1ccc(-n2nc(C(C)(C)C)cc2NC(=O)Nc2ccc(OCCN3CCOCC3)c3ccccc23)cc1
1.04,≤ 4.74,57.3,65.3,,,N#CCN(C(=O)c1cn(-c2ccc(Br)cc2)cn1)C1CC1
30.2,9.13,337,38,,,O=C(CN1CCCC(c2ccc3cn[nH]c3n2)C1)N1CCCC1 (stereo not drawn)
56.3,51,120,,,,CC1=C(C(=O)Nc2cc3cn[nH]c3cc2F)C(c2ccc(C(F)(F)F)cc2)CC(=O)N1 (stereo not drawn)
1.71,25.2,230,42.5,,,Cn1cc(CCNC(=O)N2CCCc3c(F)cccc32)cn1
1.54,≤ 4.74,823,43,,,Cc1nc(CN2C(=O)CN(C3CCCC3)C2=O)nc2ccccc12
,,,42.9,,,O=C(Nc1ccc(F)cc1)[C@H](O)c1ccccc1
,75.6,89,,,,CCCN(C(=O)c1ccc(COC)o1)c1nc2c(s1)CCc1c-2cnn1C
2.11,39.4,370,27.6,,,O=C(CSc1nnc(-c2cccs2)[nH]1)N1CCCCCC1
6.08,,,0.22,,,CCCNC(=O)Nc1ccc(Oc2ncnc3cc(OC)c(OC)cc23)cc1Cl
5.4,150,1220,7.05,,,COc1cc2c(cc1OC)CN(C(=O)C1CCCN(S(=O)(=O)c3ccc(F)cc3)C1)CC2 (stereo not drawn)
2.24,71,702,62,,,Cc1cccc(O[C@H]2CN(Cc3ccc(OCCCO)cc3)C[C@@H]2O)c1
0.713,18.9,1080,,,,N#CC1(C(=O)NCC2(C3CC3)CC2)CCCCC1
136,≤ 4.74,19.4,47.1,0.48,0.4,O=C(Nc1nc2cccc(-c3ccc(CN4CCS(=O)(=O)CC4)cc3)n2n1)C1CC1
11.1,47.8,951,46.4,,,CN(Cc1nnc(C2CC2)n1C)C(=O)C1C2CC3CC(C2)CC1C3 (stereo not drawn)
0.485,14.4,,,0.00124,,Cc1nnc(-c2ccc(N3CCC(Oc4ccccc4C(F)(F)F)CC3)nn2)s1
,127,530,8.81,,,CCCCN(C)C(=O)c1cn(-c2ccc(C)c(C)c2)nn1
1.53,21.1,79.6,,,,COCCNc1c(C)c(C)nc2cc(-c3nccn3C)nn12
